# In patent US6100254A, “Inhibitors of protein tyrosine kinases” (Board of Regents, The University of Texas System, priority 1997, dated 2000):
# Tests used:
# [1] = tested on: AFB-13 normal human fibroblasts; test: Growth of AFB-13 cells, control for cellular toxicity; type: cell-based
# Method: (§1) For these assays 2×10^4 cells are plated in 24 well multiwell tissue culture dishes, in 1 ml of DME/F12 media supplemented with 5% fetal bovine serum. After 24 h, media is replaced with fresh media containing the concentration of inhibitor to be tested, or no inhibitor as a control. Cells are counted 1, 3, and 5 days subsequent to addition of inhibitor. For the day 5 counts, media with fresh inhibitor is used to replace spent media after day 3. […] For counting viable cells, cultures are trypsinized, stained with trypan blue, and cell number determined by counting under light microscopy with the use of a hemacytometer. Benzodiazepine derivatives were tested at their maximally soluble concentrations in 0.1% DMSO diluted with tissue culture medium, and serial dilutions were made thereof. Every concentration tested was performed in triplicate, in identical wells under identical assay conditions.
# Csk (C-Src kinase) = target: T1, Csk (C-Src kinase) (Homo sapiens, UniProt P41240); test: Csk tyrosine kinase activity, poly E4Y and 32P-ATP; type: biochemical
# T1 construct: glutathione-S-transferase (GST) (N); made in house; host or cells: E. coli
# T1 sequence (P41240 whole entry): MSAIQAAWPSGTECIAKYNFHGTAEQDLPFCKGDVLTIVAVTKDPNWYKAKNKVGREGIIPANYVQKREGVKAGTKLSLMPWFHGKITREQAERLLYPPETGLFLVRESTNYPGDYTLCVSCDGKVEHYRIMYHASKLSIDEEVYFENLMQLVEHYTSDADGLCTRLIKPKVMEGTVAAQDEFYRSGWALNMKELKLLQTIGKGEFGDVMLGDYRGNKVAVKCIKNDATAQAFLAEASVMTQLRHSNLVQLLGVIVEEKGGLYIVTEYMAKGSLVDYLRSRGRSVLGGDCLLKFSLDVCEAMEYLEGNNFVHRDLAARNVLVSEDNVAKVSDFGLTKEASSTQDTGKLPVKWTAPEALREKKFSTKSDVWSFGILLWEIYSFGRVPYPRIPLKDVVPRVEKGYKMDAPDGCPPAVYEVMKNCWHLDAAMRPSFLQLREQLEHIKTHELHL
# Text: (§2) The genes encoding Csk, Lck, Abl, and the FGF receptor have all been cloned. The genes encoding Csk, Abl, and the FGF receptor were cloned from humans, and the genes encoding Lck were cloned from a mouse. Recombinant Csk, Lck, Abl, and the FGFr were expressed as glutathione-S-transferase fusion proteins using the pGEX expression vector and E. coli, and purified as described (Sun et al., 1995).
# (§3) Recombinant Src was expressed using the baculovirus-insect cell system and purified as published (Budde et al, 1993). Recombinant Csk, Lck, Abl, and the FGFr were expressed as glutathione-S-transferase fusion proteins using the pGEX expression vector and E. coli, and purified as described (Sun and Budde, 1995).
# (§4) The tyrosine kinase activity of Src, Lck (p56^lck), Csk (C-Src kinase), Abl (Bcr-Abl catalytic domain), and the FGFr (fibroblast growth factor receptor catalytic domain), was determined using poly E4 Y and ^32 P-ATP.
# Lck (p56^lck) = target: T2, Lck (p56^lck) (Mus musculus, UniProt P06240); test: Lck tyrosine kinase activity, poly E4Y and 32P-ATP; type: biochemical
# T2 construct: glutathione-S-transferase (GST) (N); made in house; host or cells: E. coli
# T2 sequence (P06240 whole entry): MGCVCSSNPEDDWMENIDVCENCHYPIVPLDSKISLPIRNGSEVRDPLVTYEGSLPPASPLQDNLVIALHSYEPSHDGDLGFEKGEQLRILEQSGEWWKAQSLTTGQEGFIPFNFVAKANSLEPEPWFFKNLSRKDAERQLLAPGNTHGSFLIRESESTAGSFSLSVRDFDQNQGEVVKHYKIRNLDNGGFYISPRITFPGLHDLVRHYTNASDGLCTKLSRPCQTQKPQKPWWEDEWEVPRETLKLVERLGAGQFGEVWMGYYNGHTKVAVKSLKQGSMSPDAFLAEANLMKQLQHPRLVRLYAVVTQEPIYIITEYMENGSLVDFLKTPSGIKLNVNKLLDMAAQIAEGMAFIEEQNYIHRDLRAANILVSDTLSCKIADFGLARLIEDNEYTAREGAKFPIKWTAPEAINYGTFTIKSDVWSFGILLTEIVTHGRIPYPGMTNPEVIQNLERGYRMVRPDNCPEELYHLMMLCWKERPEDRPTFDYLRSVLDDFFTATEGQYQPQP
# Text: as §2, §3, §4
# Yes = Yes (Homo sapiens, UniProt P07947); test: Enzyme panel: Yes; type: biochemical; details: apparent value against variable poly E4Y
# Sequence of Yes (P07947 whole entry, species assumed): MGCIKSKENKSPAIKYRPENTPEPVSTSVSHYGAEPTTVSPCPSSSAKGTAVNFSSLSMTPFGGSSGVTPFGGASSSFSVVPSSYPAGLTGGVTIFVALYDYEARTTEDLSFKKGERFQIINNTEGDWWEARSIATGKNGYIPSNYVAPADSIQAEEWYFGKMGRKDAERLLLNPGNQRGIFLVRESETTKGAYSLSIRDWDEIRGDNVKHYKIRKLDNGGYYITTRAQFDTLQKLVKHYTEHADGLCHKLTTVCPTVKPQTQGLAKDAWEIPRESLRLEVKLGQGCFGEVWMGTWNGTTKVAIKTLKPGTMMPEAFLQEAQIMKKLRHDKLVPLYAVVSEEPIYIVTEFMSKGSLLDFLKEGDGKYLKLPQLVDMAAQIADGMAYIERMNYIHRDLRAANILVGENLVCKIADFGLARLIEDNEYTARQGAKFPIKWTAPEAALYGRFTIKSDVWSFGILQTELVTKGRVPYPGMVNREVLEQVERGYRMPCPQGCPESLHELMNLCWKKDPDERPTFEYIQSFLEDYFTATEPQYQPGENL
# [2] = tested on: HT-29 colon adenocarcinoma cells; test: Anchorage-independent growth, soft agar colony formation; type: cell-based, human
# Method: Soft agar colony formation is used to determine anchorage independent growth, an in vitro parameter which correlates well with tumorigenicity of HT 29 cells. (AFB-13 cells are unable to form soft agar colonies, a characteristic of normal cells). These assays are performed in 6 well ([…]) multiwell tissue culture dishes. The wells are underlayed with 1% low melting agarose in complete growth media, and refrigerated for 15 min. 1×10^3 HT 29 cells are then added to the wells in complete media in 0.5% low melting agarose. […] After a 24 h incubation period, 0.5 mL of media containing compound to be tested (or media alone as a control) is added to the dish. During the assay, media with or without the test compound is replenished every 3 days. Colonies estimated to contain >100 cells are counted after 14 days. For compounds that induce growth inhibition, the assay is continued to 28 days to assure that differences in colony forming ability were not due to altered growth rate of cells. For initial screening, assays are performed in duplicate for each compound to be tested, due to the large amount of inhibitor required for the length of the study.
# [3] = tested on: HT-29 colon adenocarcinoma cells; test: Growth of HT-29 cells, viable cell count; type: cell-based, human; details: viable cell count 5 days after plating
# Method: as §1
# protein kinase A (PKA) = protein kinase A (PKA) (Homo sapiens, UniProt P17612); test: Enzyme panel: protein kinase A; type: biochemical
# Src = target: T3, Src (Homo sapiens, UniProt P12931); test: Src tyrosine kinase activity, poly E4Y and 32P-ATP; type: biochemical
# T3 construct: made in house; host or cells: baculovirus-insect cell system
# T3 sequence (P12931 whole entry, species assumed): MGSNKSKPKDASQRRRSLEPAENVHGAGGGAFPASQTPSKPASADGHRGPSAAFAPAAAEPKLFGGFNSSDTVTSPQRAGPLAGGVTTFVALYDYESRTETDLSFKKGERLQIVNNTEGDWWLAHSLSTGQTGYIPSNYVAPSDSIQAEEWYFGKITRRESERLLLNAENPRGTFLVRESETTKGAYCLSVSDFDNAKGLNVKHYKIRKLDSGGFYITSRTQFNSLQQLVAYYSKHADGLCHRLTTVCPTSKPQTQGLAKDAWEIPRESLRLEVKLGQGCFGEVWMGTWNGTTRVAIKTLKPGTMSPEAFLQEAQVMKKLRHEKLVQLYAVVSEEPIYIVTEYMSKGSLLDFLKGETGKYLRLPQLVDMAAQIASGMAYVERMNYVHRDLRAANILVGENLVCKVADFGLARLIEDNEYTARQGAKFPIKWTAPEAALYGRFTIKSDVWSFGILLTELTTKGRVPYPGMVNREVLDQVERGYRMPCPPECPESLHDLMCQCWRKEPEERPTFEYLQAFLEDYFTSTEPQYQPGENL
# Method: The compounds within the library were screened at a concentration of 100 μM using the following assay procedure. A 10 μL aliquot of poly(Glu:Tyr, 4:1) to final concentration of 200 μg/mL, 20 μL of benzodiazepine to be tested, 10 μL of purified Src and 10 μL of [gamma-^32 P]-ATP-MgCl2 cocktail (final concentration of 0.2 mM ATP; specific activity of 600 dpm/pmol, and 6 mM MgCl2) were mixed and incubated in 0.5 mL test tubes at ambient temperature. After 30 min, a 35 μL aliquot was spotted onto a 1×1 inch 3 MM filter paper and dropped into a 5% TCA bath at 60° C. The filter papers were washed 3 times with 5% TCA and air dried. The filter papers were then placed into a vial, 3 mL scintillation cocktail added, and analyzed by liquid scintillation counting.
# as §4
structure (smiles),measurement,setting,value
"O=C1[C@H](Cc2ccc(O)cc2)N=C(c2ccc(O)cc2)c2cc(Cl)ccc2N1Cc1ccc(-c2ccccc2)cc1 [L-Tyr,BnzPh, 7-chloro-1,3-dihydro-1-(-4-biphenylmethyl)-3-(-4-hydroxyphenylmethyl)-5-(4-hydroxyphenyl)-(2H)1,4-benzodiazepin-2-one]",activity at 3 µM,"[1]; Homo sapiens, Fibroblast, 120 h, 3 μM, viable cell count 5 days after plating",89 ± 6%
same,activity at 14 µM,"[1]; Homo sapiens, Fibroblast, 120 h, 14 μM, viable cell count 5 days after plating",97 ± 5%
same,activity at 28 µM,"[1]; Homo sapiens, Fibroblast, 120 h, 28 μM, viable cell count 5 days after plating",90 ± 4%
same,inhibition of growth of AFB-13 normal fibroblasts,[1]; same concentrations (up to 28 μM),Less than 10%
same,IC50,Csk (C-Src kinase),136 µM
same,Ki,Csk (C-Src kinase); apparent value against variable poly E4Y,63 µM
same,IC50,Lck (p56^lck),505 µM
same,Ki,Yes,50 µM
same,inhibition of colony formation of HT-29 colon adenocarcinoma cells,[2]; 28 μM,complete inhibition
same,activity at 3 µM,"[2]; Homo sapiens, HT-29, 336 h, 3 μM, colonies ≥100 cells 14 days after plating",29%
same,activity at 14 µM,"[2]; Homo sapiens, HT-29, 336 h, 14 μM, colonies ≥100 cells 14 days after plating",8%
same,activity at 28 µM,"[2]; Homo sapiens, HT-29, 336 h, 28 μM, colonies ≥100 cells 14 days after plating",0%
same,HT-29 Growth,[3]; 28 μM,cytotoxic
same,activity at 3 µM,"[3]; Homo sapiens, HT-29, 120 h, 3 μM",100 ± 10%
same,activity at 14 µM,"[3]; Homo sapiens, HT-29, 120 h, 14 μM",98 ± 9%
same,IC50,protein kinase A (PKA),450 µM
same,Ki,protein kinase A (PKA); apparent value,104 µM
same,IC50,Src,73 µM
same,Ki,"Src; Table 10, benzodiazepines as inhibitors of Src",20 µM
same,mode of inhibition,Src; against variable ATP or variable poly E4Y,mixed
